Consider three compounds from publication PMC8308508, “Hydralazine and Panobinostat Attenuate Malignant Properties of Prostate Cancer Cell Lines” (Pharmaceuticals, 2021).

SMILES strings stand for the structures. Where a name gives a salt, the structure may show the parent alone. Read-outs that look alike come from different tables or passages of the source.

The test system of one data set is 22Rv1. Briefly: Cell viability assay (resazurin), dose-response. In kind it is cell-based. Conditions: Homo sapiens, 22Rv1, 72 h, 22Rv1, day 3, resazurin. On the procedure:
(§1) Briefly, PCa cell lines were seeded into 96-well plates at 5000 cells per well and incubated overnight at 37 °C in 5% CO2. Subsequently, cells were treated with a range of concentrations of each epidrug and their respective vehicle (dH2O for hydralazine; dimethyl sulfoxide (DMSO, Sigma-Aldrich, St. Louis, MO, USA) for panobinostat and culture medium for valproic acid) during three consecutive days, exchanging the medium every 24 h. Three experimental replicates of three biological replicates were used for each assay.
(§2) The cell viability was evaluated using resazurin (Canvax Biotech, Córdoba, Spain) at 0 h and 72 h of treatment. The culture medium was removed, and cells were incubated for three hours in the dark at 37 °C and 5% CO2 with 100 μL of 1:10 resazurin solution in culture medium. […] The OD values were corrected using resazurin solution as blank.

The subject of data set [1] is DU145. Briefly: Cell viability assay (resazurin), dose-response. The data set is classed as cell-based. The following applies: Homo sapiens, DU-145, 72 h, DU145, day 3, resazurin. On the procedure:
as §1, §2

In data set [2] the test system is LNCaP. Nature of the data set: Cell viability assay (resazurin), dose-response. The data set is classed as cell-based. The following applies: Homo sapiens, 72 h, day 3, resazurin. On the procedure:
as §1, §2

The subject of data set [3] is PC-3. Briefly: Cell viability assay (resazurin), dose-response. Conditions: Homo sapiens, 72 h; PC-3, day 3, resazurin. The data set is classed as cell-based. On the procedure:
as §1, §2

Data set [4] has as its system DU145. Briefly: Synergy assay, 6 × 6 checkerboard, growth inhibition by resazurin, CI by CompuSyn. The following applies: Homo sapiens, DU-145, 72 h, three days. The data set is classed as cell-based. On the procedure: Each plate contained 6 × 6 dose matrix blocks with several epidrug concentrations below and above each respective EC50 value. […] The combination index (CI) was calculated using CompuSyn software, where <1 indicates synergism, =1 is an additive effect and >1 indicates antagonism.

The subject of data set [5] is DU145. Nature of the data set: Alkaline comet assay. In kind it is cell-based, Human. On the procedure:
After epidrug exposure, 30,000 cells were harvested by trypsinization, washed in PBS, re-suspended in 0.5% low-melting point agarose (w/v) and immediately placed on a microscope slide previously covered with 1% normal-melting point agarose (w/v). Then, the cells were immersed in lysis solution (2.5 M NaCl, 100 mM Na2EDTA, 10 mM Tris Base and 1% Triton X-100, pH 10) at 4 °C during 2 h in the dark. Afterwards, the slides were incubated in an alkaline electrophoresis buffer (300 mM NaOH, 1 mM Na2EDTA, pH 13) for 40 min at 4 °C to allow DNA unwinding. Single cell gel electrophoresis was performed on a horizontal electrophoresis platform for 30 min at 21 V, 300 mA, 4 °C. Next, slides were incubated in a neutralization buffer (0.4 M Tris-Base, pH 7.5) for 10 min, followed by staining with DAPI. Comet analysis was done using OpenComet v.1.3.1. Global DNA damage (SSB and DSB) evaluation was determined by measuring tail moment (tail % DNA × means of head × tail distance) and representative pictures taken with Olympus IX51 microscope at 200 × magnification (scale bar 50 μm). A sampling of at least 50 comets was included in the analysis. Three biological replicates were used for each condition.

Data set [6] has as its system DU145. Nature of the data set: Proliferation assay (BrdU ELISA). The data set is classed as cell-based, Human. The following applies: day 3, Hydra 50 µM, Pano 5 nM, alone or combined, compared with the vehicle.
Protocol: The cell proliferation ELISA BrdU (5-bromo-2′ deoxyuridine) assay (Roche Applied Sciences, Germany) was performed at 72 h of treatment. Cells were plated into 96-well plates at a density of 5000 cells per well, and at 0 h and 72 h of treatment, cells were incubated with 10 µM BrdU labeling solution for 8 h. After removing the culture medium, the cells were fixed with FixDenat solution for 30 min at room temperature. Then, the anti-BrdU-POD antibody (1:100) was added. After three washes with PBS 1 ×, the immune complexes were detected by the subsequent substrate reaction. The reaction product was quantified in a microplate reader (FLUOstar Omega, BMG Labtech, Ortenberg, Germany) at a wavelength of 450 nm with background subtraction at 690 nm. All ODs were normalized for the 0 h time point as well as to the vehicle. Three biological and three experimental replicates were used for each condition.
Data set [7] relates to DU145. Conditions: 3 days exposure, 7 additional days, Hydra 50 µM, Pano 5 nM. On the procedure: (§3) PCa cells were seeded in 6-well culture plates at specific concentrations for each cell line, as detailed in Table S1. After epidrug exposure, cells were incubated at 37 °C and 5% CO2 for 7 days and 10 days (LNCaP). Next, colonies were fixed in methanol (Supelco, Sigma-Aldrich, St. Louis, MO, USA), washed in PBS 1 × and stained with Hemacolor Solution II and III (Sigma-Aldrich, St. Louis, MO, USA). Three biological and three experimental replicates were used for each condition.

The subject of data set [8] is DU145. Nature of the data set: Invasion transwell assay. Conditions: 24 h after seeding, Hydra 50 µM, Pano 5 nM, differences not statistically significant. The data set is classed as cell-based, Human. On the procedure:
(§4) Cell invasion and migration were determined using Falcon® Permeable Support for 24-well Plate with 8.0 µm Transparent PET Membrane (Corning, New York, NY, USA) and Nunc® Cell Culture Inserts in 24-well Nunclon Delta surface plate (Sigma-Aldrich, St. Louis, MO, USA), respectively. Briefly, cells were harvested after treatment and were added to the upper chamber in serum-free medium, according to its optimized density (2.5 × 10^4 cells for every cell line except from LNCaP and 22Rv1 with 5 × 10^4 cells). Media containing 10% FBS was added to the lower chamber. After 24 h incubation at 37 °C and 5% CO2, the cells remaining on the upper side of the membrane were removed with cotton swabs, and those on the lower surface of the membrane were fixed in methanol (Supelco, Sigma-Aldrich, St. Louis, MO, USA), washed in PBS 1 × and stained with Crystal Violet (Active motif, Carlsbad, CA, USA). All the inserts were photographed with stereomicroscope Olympus S2X16 using a digital camera Olympus SC180 (scale bar 1 mm) at 12.5 × magnification. Five fields within each insert were selected and photographed at 115 × and further counted using ImageJ software Cell Counter Plugin. The mean of the counted cells was calculated, divided by the area of the microscope viewing field and then multiplied by the entire area of the insert. Three biological replicates were used for each condition.

Data set [9] deals with PC-3. The following applies: 24 h after seeding, Hydra 100 µM, Pano 10 nM, differences not statistically significant. On the procedure:
as §4

Data set [10] concerns DU145. Briefly: Migration transwell assay. The data set is classed as cell-based, Human. Conditions: 24 h, Hydra 50 µM, Pano 5 nM, no significant differences. On the procedure: as §4
The nature of data set [11]: Clinical bioavailability and corresponding concentration at maximum clinical dose. In kind it is in vivo. The following applies: 200 mg/day.
The conditions of data set [12]: cited from earlier work.
The subject of the next data set is WPMY-1. Briefly: Cell viability assay (resazurin), dose-response. In kind it is cell-based. Conditions: Homo sapiens, WPMY-1, 72 h, WPMY-1, day 3, resazurin. On the procedure: as §1, §2
Data set [13] relates to RWPE-1. Nature of the data set: Alkaline comet assay. In kind it is cell-based, Human. The following applies: Pano 10 nM. The text has this:
Three biological replicates were used for each condition.

Data set [14] deals with PC-3. Nature of the data set: Colony formation assay. In kind it is cell-based, Human. Conditions: 3 days exposure, 7 additional days, Hydra 100 µM, Pano 10 nM. On the procedure:
as §3

The test system of data set [15] is LNCaP. Nature of the data set: Colony formation assay. In kind it is cell-based, Human. Conditions: 3 days exposure, 10 additional days, Hydra 100 µM, Pano 5 nM.
For data set [16], the system named is RWPE-1. Nature of the data set: Cell viability assay (resazurin), dose-response. The data set is classed as cell-based. The following applies: Homo sapiens, RWPE-1, 72 h, RWPE-1, day 3, resazurin. On the procedure:
as §1, with “assay. The cell viability was evaluated using resazurin ([…] Biotech, Córdoba, Spain) at 0 h and 72 h of treatment. The culture medium was removed, and cells were incubated for three hours in the dark at 37 °C and 5% CO2 with 100 μL of 1:10 resazurin solution in culture medium. […] The OD values were corrected using resazurin solution as blank.” for “assay.”

In the case of `NNc1nncc2ccccc12` [Hydralazine, Hydralazine hydrochloride], the EC50 was 73.1 µM with 22Rv1, 50 µM in the data set on DU145 [1], 87.5 µM in the data set on LNCaP [2] and 143 µM in the data set on PC-3 [3]. Further, the inhibition at 50 µM in the data set on DU145 [4] (hydralazine alone at the selected concentration (50 µM, Table 1)) was determined as 42.8%. In addition, in the data set on DU145 [5], the “DNA damage (tail moment, comet assay)” value was “increased DNA damage”. The “cell proliferation (BrdU incorporation)” value with DU145 [6] was “considerable proliferation inhibition”. Also, in the data set on DU145 [7], the “colony formation (clonogenic capacity)” value is on record as “almost no colonies were apparent”. The “cell invasion (transwell)” value with DU145 [8] was “reduced invasion”; in the data set with PC-3 [9], “two times higher than that of panobinostat”. Moreover, the “cell migration (transwell)” value in the data set on DU145 [10] is “reduced cell migration”. Also, the “concentration corresponding to the maximum clinically recommended dose” value in [11] (bioavailability 16%, fast acetylators) is approximately 0.2 M; in data set [11] (bioavailability 35%, slow acetylators), approximately 0.44 M. Also, the results for the bioavailability in [12] (fast acetylators) and in data set [12] (slow acetylators) were 16% and 35%, respectively.

Turning to `Cc1[nH]c2ccccc2c1CCNCc1ccc(/C=C/C(=O)NO)cc1` [Panobinostat], the EC50 in the data set with 22Rv1 turned out to be 0.014 µM; with DU145 [1], 0.00697 µM; in the data set on LNCaP [2], 0.0247 µM; in the data set on PC-3 [3], 0.0289 µM; in the data set on WPMY-1, 0.0241 µM. The inhibition at 0.005 µM in the data set on DU145 [4] (panobinostat alone at the selected concentration (5 nM, Table 1)) was 48.9%. In the data set on DU145 [5] (DU145, Hydra 50 µM, Pano 5 nM, alone or combined), the “DNA damage (tail moment, comet assay)” value is reported as “increased DNA damage”. Also, the “tail moment (comet assay)” value in the data set with RWPE-1 [13] is on record as “significantly increased”. Besides, in the data set on DU145 [6], the “cell proliferation (BrdU incorporation)” value is “but not panobinostat, led to considerable proliferation inhibition”. In addition, the colony formation result with PC-3 [14] and with LNCaP [15] was “showed a higher impact” each time. For the same compound, the “cell invasion (transwell)” value in the data set with DU145 [8] is on record as “but not panobinostat, also reduced invasion”. Further, the bioavailability in [12] is 21.4%.

With `CCCC(CCC)C(=O)O` [Valproic acid], the EC50 was 2000 to 3000 µM in the data set with 22Rv1; 2000 to 3000 µM in the data set on DU145 [1]; 2000 to 3000 µM with LNCaP [2]; 8540 µM with PC-3 [3]; 4460 µM with WPMY-1; 8970 µM in the data set on RWPE-1 [16].
